Data taken from US7582786B2, “Synthetic catalytic free radical scavengers useful as antioxidants for prevention and therapy of disease” (Eukarion Inc., priority 1996, dated 2009).
Marks after values point to notes of the source that are not given here.

Legend:
[1] = SOD activity, xanthine/xanthine oxidase with cytochrome C as acceptor (Example 2); format: biochemical; conditions: relative to C7 (C7 = 100)
Experimental: Superoxide dismutase (SOD) activity was assayed by following the inhibition of the reduction of an electron acceptor molecule in the presence of the free-radical generating system xanthine/xanthine oxidase (McCord et al. (1973) Superoxide and Superoxide Dismutase in “Oxidases and Related Redox Systems, vol. I, King et al. eds., University Park press, Baltimore, pp. 51-76). The assay mixture consisted of 50 mM sodium phosphate, pH 7.8, 120 μM xanthine, 0.2 units/ml xanthine oxidase, with acceptor molecule and salen manganese compound, as indicated. Assays were conducted at 27±0.2° C. using a water-jacketed cell holder in a Beckman DU7400 spectrophotometer. In most cases, oxidized cytochrome c, at 0.13 mg/ml, was employed as acceptor and its reduction was monitored spectrophotometrically at 550 nm. In some experiments, nitroblue tetrazolium (NBT), at 80 μM, was substituted for cytochrome c as the acceptor. NBT reduction was also monitored at 550 nm. An estimated extinction coefficient for NBT reduction, 20,800 M^−1cm^−1, determined empirically by exhaustive reduction of NBT in the reaction mixture described above, was employed where indicated. […] Conversion of xanthine to urate was calculated using ε290's of […] for urate and 4050 M^−1cm^−1 for xanthine. […] For each compound, at least four different concentrations were tested in duplicate.

[2] = Catalase activity, conversion of H2O2 to oxygen, polarographic oxygen electrode (Example 2); format: biochemical; conditions: relative to C7 (C7 = 100)
Experimental: Catalase activity was assayed by monitoring the conversion of H2O2 to oxygen using a Clark-type polarographic oxygen electrode. The apparatus consisted of a Mini Clark Style electrode, a 600 μl Oxygen Uptake Chamber, and a Chemical Microsensor system, all obtained from Diamond General Corporation (Ann Arbor, Mich.). The electrode was calibrated by immersion in nitrogen- or air-equilibrated buffers using a Dual Chamber Calibration Cell (Diamond General,. Corp.). Catalase reaction mixtures consisted of 50 mM sodium phosphate, pH 8.1, 0.9% sodium chloride, and salen manganese complex and H2O2 at the indicated concentrations. The temperature of the water-jacketed reaction chamber, as well as the calibration buffers, was maintained at 25±0.1° C. Data were collected at 1 sec intervals and stored-on a MacIntosh II computer using data acquisition hardware and software by Strawberry Tree, Inc. (Sunnyvale, Calif.). Dissolved oxygen concentrations were calculated as described previously (Del Rio et al. (1977) Anal. Biochem. 80: 409) based on a value of 2.5×10^−4 M oxygen for air-saturated buffer at 25° C. Linearity of the dissolved oxygen measurements within the experimental range was continued by determining the amount of oxygen generated from known quantities of H2O2 during exhaustive treatment with bovine liver catalase. Stock solutions of H2O2 were prepared by diluting a commercial 30% H2O2 solution in water and the H2O2 concentrations in these stocks were determined by absorbance at 240 nm, using a molar extinction coefficient of 44 (Stadtman, E R. et al. (1990) Proc. Natl. Acad. Sci. USA 87: 384). […] In the absence of salen manganese complex, H2O2 alone typically produced an early, relatively slow increase in signal. The slope of this increased signal was not proportional to H2O2 concentration (for example in one experiment, 1 and 10 Mm H2O2 yielded apparent rates of 12 and 14 μM oxygen per min, respectively) and may be due to an electrode artifact. […] Where presented, initial rates were calculated by determining the slope of the linear portion of time dependent plots of oxygen generation, usually comprising the first five seconds of the reaction. Unless otherwise indicated, these were corrected by subtracting the rate obtained with H2O2 alone. Where presented, endpoint oxygen generated was calculated from time-dependent plots, such as those shown in FIG. 14, as the difference between the baseline oxygen concentration immediately prior to substrate addition and the maximal oxygen concentration achieved during the course of the reaction. All reactions subjected to these calculations were run for a sufficient time to ensure that oxygen generation had ceased.
(§1) Catalase and peroxidase activities were assayed as described in Example 2. Catalase assays contained 10 μM salen-manganese complex and 10 mM hydrogen peroxide. Peroxidase assays contained 10 μM salen-manganese complex and 0.2 mM hydrogen peroxide. Glucose-glucose oxidase toxicity assays were performed using human dermal fibroblasts as described in Example 2.

[3] = Peroxidase activity, H2O2-dependent oxidation of ABTS (Example 2); format: biochemical; conditions: relative to C7 (C7 = 100)
Experimental: Peroxidase activity was assayed by monitoring the hydrogen peroxide-dependent oxidation of 2,2′-azino-bis(3-ethylbenzthiazoline-6) sulfonic acid (ABTS) spectrophotometrically. Standard assay mixtures consisted of 50 mM sodium phosphate, pH 8.1, 0.9% sodium chloride, 0.5 mM ABTS, and H2O2 and salen manganese complex as indicated. Where indicated, 50 mM sodium phosphate buffers of pH 6.0 or pH 7.1 were substituted. Assays were conducted at 27±0.2° C. ABTS oxidation was monitored at 740 or 500 nm to eliminate interference by the salen manganese complexes, many of which absorb in the vicinity of the λmax of oxidized ABTS, and to avoid absorbance values that exceeded the linear range of the spectrophotometer. The amount of oxidized ABTS was estimated using an Δε740 of 20,300 M^−1cm^−1 or an Δε500 of 3400 M^−1cm^−1 calculated based upon the published molar extinction coefficient oat 405 nm (36,800).
as §1

[4] = system: isolated iron-overloaded rat hearts; test: Isolated iron-overloaded rat hearts submitted to ischemia and reperfusion (function and electron microscopy)
Experimental: Rats received an intramuscular injection of 0.25 ml of an iron-dextran solution (100 g iron hydroxide, 99 g dextran, water up to 1 l) every third day during a 5-week period to achieve a significant iron overload in cardiac tissue. At the end of this treatment, rats were anesthetized with sodium pentobarbital (40 mg/kg) and heparin (1,000 IU/kg) was administered via a femoral vein. Hearts were then removed and rapidly perfused through the aorta according to the technique described by Langendorff [Langendorff, O., Pflügers Arch. 61: 291, 1895] at a constant flow rate of 11 ml/minute. The perfusion fluid was a modified Krebs-Henseleit buffer containing (in mmol/l): NaCl 118, KCl 5.9, NaHCO3 25, MgCl2 1.2, NaH2PO4 0.6, CaCl2 2.4, Glucose […]. pH was maintained at 7.4±0.05 when the perfusion medium was saturated with O2—CO2 (95%-5%) at 37° C. The perfusion apparatus was fully thermostated such that the temperature of the perfusion medium was 37.0±0.5° C. when it reached the aorta. An ultra-thin balloon was inserted in the left ventricle immediately after the initiation of aortic perfusion and was inflated so as to obtain an end-diastolic pressure of 5 mm Hg. A 15 minute stabilization period was initiated immediately following balloon placement. At the end of this period, systolic and diastolic ventricular pressures and heart beat rate (HR) were recorded through a pressure transducer linked to the ventricular balloon. Left Ventricular Developed Pressure (LVDP) was calculated by the difference between systolic and diastolic pressure and the product HR×LVDP was taken as an index of oxygen consumption. Hearts were then subjected to a 15 minute total global normothermic ischemia, followed by 15 minutes of reperfusion with the perfusion medium used initially. During this 15 minute reperfusion, heart rate, and diastolic and systolic pressures were monitored. Early ventricular fibrillations were analyzed 1 min. after the start of the reperfusion.
Three experimental groups were studied.
After the 15 minute reperfusion, 3 hearts in each group were prepared for electron microscopy by perfusion with 2.5% glutaraldehyde. Ultra-thin slices (500-600 Å thickness) were examined.
Mitochondria were classified into Type A (normal), Type B (swollen, unbroken), and Type C (ruptured membranes). Sarcomeres were classified into Type A (normal) and Type B (contacted and/or necrosis). The results are expressed as percentages.

[5] = 1 minute after reperfusion, DMTU 10 mM, C7 50 μM
[6] = 15 minutes after reperfusion, DMTU 10 mM, C7 50 μM
[7] = Before ischemia, DMTU 10 mM, C7 50 μM
[8] = electron microscopy after 15 minute reperfusion

## COc1cc(OC)c2c(c1)[O][Mn]([Cl])[O]c1cc(OC)cc(OC)c1C=NCCN=C2 [Compound C39]
[1]
  SOD: 27

## [Cl][Mn]1[O]c2ccccc2C=Nc2cccnc2N=Cc2ccccc2[O]1 [Compound C44]
[2]
  Catalase endpt.: 493
  Catalase rate: 272
[3]
  Peroxidase: 48

## COc1cccc2c1[O][Mn]([Cl])[O]c1c(cccc1OC)C=Nc1ncccc1N=C2 [Compound C46]
[2]
  Catalase endpt.: 830
  Catalase rate: 465
[3]
  Peroxidase: 20

## CC(=O)[O][Mn]1[O]c2ccccc2C=Nc2ccccc2N=Cc2ccccc2[O]1 [Compound C47]
[2]
  Catalase endpt.: 398
  Catalase rate: 343
[3]
  Peroxidase: 101

## COc1cccc2c1[O][Mn]([O]C(C)=O)[O]c1c(cccc1OC)C=NC1CCCCC1N=C2 (centres unmarked) [Compound C50]
[2]
  Catalase endpt.: 287
  Catalase rate: 174
[3]
  Peroxidase: 170

## CC(=O)[O][Mn]1[O]c2ccccc2C=NCC(C)(C)CN=Cc2ccccc2[O]1 [Compound C52]
[2]
  Catalase endpt.: 33
  Catalase rate: 73
[3]
  Peroxidase: 0

## [F][Mn]1[O]c2ccccc2C=NCCN=Cc2ccccc2[O]1 [Compound C54]
[1]
  SOD: 75
[3]
  Peroxidase: 116

## [Br][Mn]1[O]c2ccccc2C=NCCN=Cc2ccccc2[O]1 [Compound C55]
[1]
  SOD: 178
[3]
  Peroxidase: 101

## [Cl][Fe]1[O]c2ccccc2C=NCCN=Cc2ccccc2[O]1 [Compound C57]
[1]
  SOD: 33

## C1=NCCN=Cc2ccccc2[O][Ni][O]c2ccccc21 [Compound C59]
[3]
  Peroxidase: 0

## COc1cc(Br)c2c(c1)C=NCCN=Cc1cc(OC)cc(Br)c1[O][Mn]([O]C(C)=O)[O]2 [Compound C69]
[3]
  Peroxidase: 167

## CC(=O)[O][Mn]1[O]c2c(O)cccc2C=NCCN=Cc2cccc(O)c2[O]1 [Compound C71]
[1]
  SOD: 75

## Oc1ccc2c(c1)[O][Mn]([Cl])[O]c1cc(O)ccc1C=NCCN=C2 [Compound C72]
[1]
  SOD: 58

## CC(=O)[O][Mn]1[O]c2cc(O)ccc2C=NCCN=Cc2ccc(O)cc2[O]1 [Compound C73]
[1]
  SOD: 61

## CC(=O)[O][Mn]1[O]c2ccc(O)cc2C=NCCN=Cc2cc(O)ccc2[O]1 [Compound C74]
[1]
  SOD: 65

## CC(=O)[O][Mn]1[O]c2c(F)cccc2C=Nc2cccnc2N=Cc2cccc(F)c2[O]1 [Compound C75]
[3]
  Peroxidase: 0

## COc1cc(Br)c2c(c1)C=Nc1ccccc1N=Cc1cc(OC)cc(Br)c1[O][Mn]([O]C(C)=O)[O]2 [Compound C76]
[2]
  Catalase endpt.: 159
  Catalase rate: 427
[3]
  Peroxidase: 23

## CC(=O)[O][Mn]1[O]c2ccc(Cl)cc2C=Nc2cccnc2N=Cc2cc(Cl)ccc2[O]1 [Compound C77]
[3]
  Peroxidase: 0

## CC(=O)[O][Mn]1[O]c2ccc3ccccc3c2C=Nc2ccccc2N=Cc2c(ccc3ccccc23)[O]1 [Compound C79]
[2]
  Catalase endpt.: 22
  Catalase rate: 42
[3]
  Peroxidase: 0

## COc1cccc2c1[O][Mn]([O]C(C)=O)[O]c1c(cccc1OC)C=NCCCN=C2 [Compound C80]
[2]
  Catalase endpt.: 24
  Catalase rate: 34
[3]
  Peroxidase: 0

## COc1cccc2c1[O][Mn]([Cl])[O]c1c(cccc1OC)C=Nc1ccccc1N=C2 [Compound C81]
[2]
  Catalase endpt.: 870
  Catalase rate: 493
[3]
  Peroxidase: 83

## CC(=O)[O][Mn]1[O]c2c3cccc2OCCOCCOCCOc2cccc(c2[O]1)C=Nc1ccccc1N=C3 [Compound C82]
[2]
  Catalase endpt.: 756
  Catalase rate: 345
[3]
  Peroxidase: 59

## CC(=O)[O][Mn]1[O]c2ccccc2CNCCNCc2ccccc2[O]1 [Compound C83]
[2]
  Catalase endpt.: 52
  Catalase rate: 42
[3]
  Peroxidase: 74

## [Cl][Mn]1[O]c2ccccc2CNCCNCc2ccccc2[O]1 [Compound C84]
[2]
  Catalase endpt.: 51
  Catalase rate: 31
[3]
  Peroxidase: 77

## COc1ccc2c(c1)C(C)=NCCN=C(C)c1cc(OC)ccc1[O][Mn]([O]C(C)=O)[O]2 [Compound C87]
[3]
  Peroxidase: 20

## COc1ccc2c(c1)[O][Mn]([O]C(C)=O)[O]c1cc(OC)ccc1C(C)=NCCN=C2C [Compound C88]
[3]
  Peroxidase: 0

## COc1ccc2c(c1)[O][Mn]([O]C(C)=O)[O]c1cc(OC)ccc1C(c1ccccc1)=NCCN=C2c1ccccc1 [Compound C89]
[3]
  Peroxidase: 0

## CNC(=S)NC [DMTU, dimethylthiourea]
[4]; [5]
  DP: 37.2 ± 10.0 mm Hg
  HR: 91 ± 10 beats/min
  HR × LVDP: 3.5 ± 1.2 ×10.3
  SP: 62 ± 9 mm Hg
  VF, number of hearts exhibiting episodes of ventricular fibrillation: 3/8
[4]; [6]
  DP: 27.8 ± 9.4 mm Hg
  HR: 226 ± 18 beats/min
  HR × LVDP: 9.4 ± 2.0 ×10.3
  SP: 58 ± 6 mm Hg
[4]; [7]
  DP: 4.7 ± 0.3 mm Hg
  HR: 280 ± 10 beats/min
  HR × LVDP: 24.1 ± 0.6 ×10.3
  SP: 97 ± 4 mm Hg
[4]; [8]
  Mitochondria Type A (normal): 14.3* %
  Mitochondria Type B (swollen, unbroken): 19.5%
  Mitochondria Type C (ruptured membranes): 66.2%
  Sarcomeres Type A (normal): 13.7+ %
  Sarcomeres Type B (contacted and/or necrosis): 86.3+ %
